Literature values, collected in US8030432B2, “Copolymerization of hydroxytyrosol with flavonoids mediated by horseradish peroxidases” (The United States of America as represented by the …, priority 2009, dated 2011).

What was measured:
[1] = addition of 300 mg/Kg; red meat and poultry

Row | Substance | decomposition at room temperature | inhibition of oxidation [1]
1 | epigallocatechin-3-gallate [EGCG] | decompose at room temperature after a few minutes | –
2 | catechin | – | showed inhibition of oxidation
